The values that follow come from paper PMC2360547 (British Journal of Cancer, 2006).

The IC50 is the concentration that inhibits the measured activity by half.

Molecules are shown by their SMILES. “And” between values parts separate entries of the source, which are not always exact repeats. Equal entries are not always repeated. Where two headings read alike, the source gives them in different places.

A short description of series [1]: Plasma concentrations by HPLC with fluorescence detection. Format: in vivo, human. The settings on record: for concentration at 28 day: human, plasma, oral, 75 mg tid, 12 subjects, about 1 month of 75 mg tid; for Plasma concentrations: individual subjects, sampling day 27-30, midostaurin 75 mg tid. Here is the method:
(§1) Therefore, the tumour tissue was frozen and cut into as small as possible pieces with a scalpel. The pieces were weighed, added to 1 ml of water, vortexed and thereafter treated like plasma. The assay for plasma samples was validated with acceptable calibration curves, within-study variability and total recovery. […] Due to limited availability of tumour tissue, the within-study validation for tumour assay was not performed.

Series [2] can be described thus: Tumour tissue concentrations by HPLC with fluorescence detection. Format: in vivo, human. The settings on record: for Kp at 28 day / concentration at 28 day: human, oral, 10 subjects; for Kp at 28 day: tumour tissue / plasma, 75 mg three times a day; for Kp at 28 day / Tissue/plasma ratios: tumour tissue to plasma; for concentration at 28 day / Tissue concentrations: tumour tissue, about 1 month of 75 mg tid; for concentration at 28 day: 75 mg tid; for Tissue/plasma ratios / Tissue concentrations: individual subjects. Here is the method:
as §1

For the next series, the system named is PKC isotypes. To be noted: metabolites, compared with parent drug; no reference given; read-out: IC50 against PKC isotypes; cited from earlier work.
On the set-up of series [3]: method as in Propper et al, 2001. The settings on record: Phase I trial, oral; ref Propper et al, 2001; cited from earlier work.
Where [4] appears, read: read-out: Plasma concentrations, median.
The mark [5] stands for this setting: read-out: Tissue/plasma ratios, median.
[6] abbreviates: read-out: Tissue concentrations, median.
The mark [7] stands for this setting: read-out: Plasma concentrations, maximum.
The mark [8] stands for this setting: read-out: Plasma concentrations, mean.
The mark [9] stands for this setting: read-out: Plasma concentrations, minimum.
[10] abbreviates: read-out: Tissue/plasma ratios, maximum.
[11] abbreviates: read-out: Tissue/plasma ratios, mean.
Setting [12] is: read-out: Tissue/plasma ratios, minimum.
Where [13] appears, read: read-out: Tissue concentrations, maximum.
Where [14] appears, read: read-out: Tissue concentrations, mean.
The mark [15] stands for this setting: read-out: Tissue concentrations, minimum.

Turning to `CO[C@@H]1[C@H](N(C)C(=O)c2ccccc2)C[C@H]2O[C@]1(C)n1c3ccccc3c3c4c(c5c6ccccc6n2c5c31)C(=O)N[C@H]4O` [CGP52421], the concentration at 28 day worked out at 18.4 µM in series [1] (setting [4]) and 1.52 µM in series [2] (setting [6]). In addition, in series [2] (setting [5]), the Kp at 28 day was found to be 0.083. In the series on PKC isotypes, the 50% inhibitory concentration (IC50) is 50 nM.

As for `CN(C(=O)c1ccccc1)[C@@H]1C[C@H]2O[C@@](C)([C@@H]1O)n1c3ccccc3c3c4c(c5c6ccccc6n2c5c31)C(=O)NC4` [CGP 62221], the concentration at 28 day is 10.1 µM in series [1] (setting [7]); 5.36 µM in series [1] (setting [8]); 5.43 µM in series [1] (setting [4]); 2.47 µM in series [1] (setting [9]); 2.35 µM in series [2] (setting [13]); 0.99 µM in series [2] (setting [14]). Also, the figures for the concentration at 28 day in series [2] (setting [6]) and in series [2] (setting [15]) were 0.71 µM and 0.175 µM, respectively. Moreover, the Plasma concentrations in series [1] was 4.66 µM and 3.227 µM and 2.474 µM and 7.205 µM and 5.723 µM and 6.061 µM and 10.132 µM and 2.995 µM and 5.761 µM and 5.28 µM and 5.265 µM and 5.586 µM. Besides, the Kp at 28 day in series [2] (setting [10]) turned out to be 0.42; in series [2] (setting [11]), 0.21; in series [2] (setting [5]), 0.2; in series [2] (setting [12]) it was 0.04. The Tissue/plasma ratios in series [2] was 0.04 and 0.19 and 0.21 and 0.11 and 0.35 and 0.34 and 0.12 and 0.22 and 0.42. For the same compound, in series [2], the Tissue concentrations is 175 nM and 609 nM and 523 nM and 759 nM and 2006 nM and 661 nM and 1022 nM and 651 nM and 1143 nM and 2353 nM. For the same compound, in the series with PKC isotypes, the IC50 was 120 nM.

Regarding `CO[C@@H]1[C@H](N(C)C(=O)c2ccccc2)C[C@H]2O[C@]1(C)n1c3ccccc3c3c4c(c5c6ccccc6n2c5c31)C(=O)NC4O` (single isomer, unassigned) [CGP52421 (e2)], the concentration at 28 day is 22.4 µM in series [1] (setting [7]); 17.3 µM in series [1] (setting [8]); 18.4 µM in series [1] (setting [4]); 10.8 µM in series [1] (setting [9]); 3.21 µM in series [2] (setting [13]); 1.51 µM in series [2] (setting [14]). The concentration at 28 day came to 1.52 µM in series [2] (setting [6]) and 0.635 µM in series [2] (setting [15]). Further, in series [1], the Plasma concentrations was 19.151 µM and 16.633 µM and 11.311 µM and 18.383 µM and 19.519 µM and 18.475 µM and 22.448 µM and 13.352 µM and 10.767 µM and 15.869 µM and 20.34 µM and 20.944 µM. In addition, the “Estimated median elimination t1/2” value in series [3] is 36 days. Further, the Kp at 28 day in series [2] (setting [10]) stood at 0.153; in series [2] (setting [11]), 0.085; in series [2] (setting [5]) it was 0.083; in series [2] (setting [12]) it was 0.033. For the same compound, the Tissue/plasma ratios in series [2] was 0.03 and 0.09 and 0.07 and 0.06 and 0.12 and 0.08 and 0.11 and 0.05 and 0.15. Moreover, in series [2], the Tissue concentrations was 635 nM and 1528 nM and 789 nM and 1031 nM and 2367 nM and 1569 nM and 1503 nM and 776 nM and 1644 nM and 3212 nM.
